The values below come from article PMC9386376, “Discovery of spirooxindole-derived small-molecule compounds as novel HDAC/MDM2 dual inhibitors and investigation of their anticancer activity” (Frontiers in Oncology, 2022).

The subject of assay [1] is HCT116 cells. Nature of the assay: MTT antiproliferative assay, HCT116. As to conditions: Homo sapiens, HCT-116, read-out: IC50 HCT116. (Formazan colour is commonly taken as a measure of viable cells.)
Protocol: (§1) The cytotoxicity assay was performed with MTT method as previously described ([73], [88], [89]).
Assay [2] concerns MCF-7 cells. Nature of the assay: MTT antiproliferative assay, MCF-7. The settings on record: Homo sapiens, MCF7, read-out: IC50 MCF-7.
Protocol: as §1
The test system of assay [3] is A431 cells. Nature of the assay: MTT antiproliferative assay, A431. The settings on record: Homo sapiens, A-431, read-out: IC50 A431.
Protocol: as §1
Assay [4] relates to MCF-7 cells. Nature of the assay: Annexin V-FITC/PI double staining, flow cytometry. In kind it is cell-based, human. The settings on record: MCF-7, 5.0 μM, 24 h. Here is the method:
It was reported that the inactivation of HDAC and/or MDM2 could increase the percentage of apoptosis cells ([85]–[87]). Therefore, three methods were applied to assess the effect of MDM2-HDAC dual inhibitor 11b on the apoptosis of MCF-7 cells. […] Subsequently, the annexin V-FITC/propidium iodide (PI) double staining method was carried out to quantitatively detect the effect of compound 11b on cell apoptosis (Figure 9B).
Cells were collected after incubation, then fixed with 75% ice-cold ethanol and stored at -20°C for 1 h. The cells were then harvested with 0.25% trypsin (without EDTA) and centrifuged at 2000 rpm for 5min. Then, the harvested cells were washed with ice-cold PBS twice and resuspended in 500 μL of 1× binding buffer, which was then added to 5 μL of annexin V-FITC and incubated at room temperature in the dark for 15 min. After adding 10 μL of propidium iodide (PI), the cells were incubated at room temperature in the dark. After another 15 min incubation, the cells were collected and analyzed by flow cytometry.

With `COc1ccc(C2=N[C@@H](c3ccc(Cl)cc3)[C@@H](c3ccc(Cl)cc3)N2C(=O)N2CCNC(=O)C2)c(OC(C)C)c1` [Nutlin-3, reference compound], the half-maximal inhibitory concentration (IC50) (usually the concentration that inhibits the measured activity by half) amounted to 11 ± 2.42 µM in assay [1], 9.75 ± 2.97 µM in assay [2] and 9.72 ± 1.66 µM in assay [3]. For the same compound, the apoptotic cells in assay [4] was found to be 28.23%.
Turning to `O=C(CCCCCCC(=O)Nc1ccccc1)NO` [SAHA, vorinostat], the apoptotic cells in assay [4] came out at 7.56%.
